Read-outs that look alike come from different tables or passages of the source. *1 amine or outer side, *2 acyl side, *3 side chain or, on linkers, in order; H or OH if unused. Where no end group is shown, it is not given here. Side-chain parts run from the residue outwards. [ ]: non-standard residue; d: D form. The star is where a group is joined. γGlu = O=C(O)[C@H](CCC(=O)[*:2])N[*:1]; Pyrrolidine(2S-CN) = N#C[C@@H]1CCCN1*; NMeY = CN[C@@H](Cc1ccc(O)cc1)C(=O)O; AEEA = NCCOCCOCC(=O)O
What was measured:
ACE from rabbit lung = target: T1, ACE from rabbit lung (Oryctolagus cuniculus, UniProt P12822); experiment: ACE inhibition assay; format: biochemical
T1 construct: ACE from rabbit lung; purchased Sigma Chemical Co; host or cells: rabbit lung tissue
T1 sequence (P12822 34-1310): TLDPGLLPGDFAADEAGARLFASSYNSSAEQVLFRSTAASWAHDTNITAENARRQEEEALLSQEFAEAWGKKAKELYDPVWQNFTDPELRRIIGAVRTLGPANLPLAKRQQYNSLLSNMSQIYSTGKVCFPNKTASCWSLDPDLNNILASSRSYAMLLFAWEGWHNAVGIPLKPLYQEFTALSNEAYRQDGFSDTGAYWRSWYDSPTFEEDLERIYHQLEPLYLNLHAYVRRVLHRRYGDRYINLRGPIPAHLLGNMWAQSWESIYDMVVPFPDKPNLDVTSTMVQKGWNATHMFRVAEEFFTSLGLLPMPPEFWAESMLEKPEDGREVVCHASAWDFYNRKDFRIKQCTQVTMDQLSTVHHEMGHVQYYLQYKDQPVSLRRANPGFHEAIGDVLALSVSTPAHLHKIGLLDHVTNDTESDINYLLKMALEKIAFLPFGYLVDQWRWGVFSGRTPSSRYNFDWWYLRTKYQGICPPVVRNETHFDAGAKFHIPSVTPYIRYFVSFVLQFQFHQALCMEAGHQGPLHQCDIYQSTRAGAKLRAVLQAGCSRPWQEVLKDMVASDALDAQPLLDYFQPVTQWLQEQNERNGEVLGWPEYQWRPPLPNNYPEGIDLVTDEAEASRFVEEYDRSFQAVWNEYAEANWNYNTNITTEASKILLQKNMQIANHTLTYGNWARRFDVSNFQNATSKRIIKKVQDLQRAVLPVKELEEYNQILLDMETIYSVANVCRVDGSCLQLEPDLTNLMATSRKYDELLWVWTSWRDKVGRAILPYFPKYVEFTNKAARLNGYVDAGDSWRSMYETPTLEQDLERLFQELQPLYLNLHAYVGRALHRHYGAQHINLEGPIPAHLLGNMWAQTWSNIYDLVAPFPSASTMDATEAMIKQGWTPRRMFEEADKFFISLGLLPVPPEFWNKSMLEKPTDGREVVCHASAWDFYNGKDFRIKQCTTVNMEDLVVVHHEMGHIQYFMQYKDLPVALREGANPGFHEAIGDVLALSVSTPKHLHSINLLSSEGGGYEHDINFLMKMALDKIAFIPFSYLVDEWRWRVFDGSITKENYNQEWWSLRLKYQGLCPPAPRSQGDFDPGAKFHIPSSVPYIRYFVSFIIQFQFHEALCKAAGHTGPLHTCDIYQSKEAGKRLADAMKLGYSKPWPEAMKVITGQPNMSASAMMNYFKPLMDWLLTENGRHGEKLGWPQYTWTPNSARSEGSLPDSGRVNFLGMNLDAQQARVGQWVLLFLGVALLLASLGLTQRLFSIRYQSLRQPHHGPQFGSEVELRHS
Experimental: Peptide-ACE peptidase inhibitor conjugate compounds were assessed in an ACE inhibition assay using purified ACE enzyme and chromogenic substrates. An ACE stock solution was prepared by dissolving 0.1 unit of enzyme (ACE from rabbit lung, Sigma Chemical Co., St. Louis, Mo.) in 0.640 mL of HEPES buffer (0.1 M, pH=8). A 2 mM stock solution of substrate (N-benzyloxycarbonyl-Phe-His-Leu-OH) dissolved in methanol. The ACE inhibitor compounds were dissolved in phosphate buffer (0.1 M, pH=8) at concentrations of 0.0, 1, 10, 20, 60 and 100 μM. For the inhibition assay, six 2 mL microcentrifuge tubes were prepared containing 1.45 mL of phosphate buffer pH=8, 0.05 mL of 10% NaCl and 0.015 mL of substrate solution. To each microcentrifuge tube was added 0.015 mL of one of the ACE inhibitor compound's stock solutions. The solutions were heated at 37° C. for about 5 minutes. The reaction was started by the addition of 5 μL of the ACE stock solution to each tube mixture (30 seconds in between). The reaction mixtures were incubated at 37° C. After 5 min, 10 min, 30 min and 60 min., aliquots of 100 μL were taken from each tube (each sample was taken in intervals of 30 seconds). Tubes containing the 100 μL sample were floated in a boiling water bath for 5 min. and then cooled. The reaction samples were then treated with 20 μL of 2M NaOH and 20 μL of 0.1% phthaldialdehyde solution. The tubes were shaken for 4 minutes and 10 μL of 6 M HCl were added. […] Initial rates were determined from linear portions of product release curves. Starting substrate concentration in all assays was 20 μM. Apparent binding constants (Kd^app or Ki^app) of inhibitors to ACE were determined by fitting inhibition curves (initial rate vs. inhibitor concentration) to equation:
[formula] where v0 is reaction rate in the absence of inhibitor and [I]-inhibitor concentration. Fits were done by least-squares method using KaleidaGraph 3.6 (Synergy Software, Reading Pa.).

plasma carboxypeptidase = experiment: Carboxypeptidase activity assay, PYY(3-36) in human plasma; format: biochemical; conditions: for inhibition of plasma carboxypeptidase activity (in words): protease inhibitor at a final concentration of 1 mM; for inhibition of the formation of PYY(3-35) (in words): 0.5 mM in human plasma, FIGS. 10-12
Experimental: Carboxypeptidase activity assays were performed in the presence of various agents to test for carboxypeptidase inhibitor activity of the agents.
The remainder of the sample was placed in an incubator at 37° C., mixing at 600 RPM for sixty minutes. At 10 minute intervals, a 100 μl sample of the mixture was removed and transferred to a separate microcentrifuge tubes. Following the transfer of the 100 μL sample at the zero time point and each 10 minute interval, each collected sample was extracted by slow addition of 100 μl cold 0.2% formic acid:acetonitrile, while mixing. After addition of the acetonitrile solution, the sample was vortex mixed at high speed for 15 seconds. The extracted samples were stored at −20° C. for at least 20 minutes and then centrifuged at 11,000×g for 10 minutes at 5° C. The supernatant of each sample was transferred to a new microcentrifuge tube, centrifuged again, and finally transferred for LC/MS analysis. The MS analysis was a Q1 single ion monitoring method that detects the most intense ion of the parent molecule and the peptide fragment of interest.

NIH/Swiss mice = experiment: Oral glucose tolerance test (OGTT), glucose lowering; format: in vivo; conditions: 30 nM/kg, blood glucose
Experimental: . Test compounds were injected IP (t=0 min) immediately following baseline measurements of 2 hour fasted NIH/Swiss mice. Blood samples were taken at 60, 120, and 180 minutes after injection. In some assays, samples were also taken at 240 minutes after the injection. Blood glucose was measured with a One-Touch® Ultra® glucose meter (LifeScan, Inc., Milpitas, Calif.). […].
The tests were performed as described in Example 5.

CC[C@H](C)[C@H](NC(=O)[C@H](Cc1ccccc1)NC(=O)[C@H](CC(C)C)NC(=O)[C@H](CCCNC(=N)N)NC(=O)[C@@H](NC(=O)[C@H](C)NC(=O)[C@H](CCC(=O)O)NC(=O)[C@H](CCC(=O)O)NC(=O)[C@H](CCC(=O)O)NC(=O)[C@H](CC(C)C)NC(=O)[C@H](CCC(N)=O)NC(=O)[C@H](CCCCN)NC(=O)[C@H](CO)NC(=O)[C@H](CC(C)C)NC(=O)[C@H](CC(=O)O)NC(=O)[C@H](CO)NC(=O)[C@@H](NC(=O)[C@H](Cc1ccccc1)NC(=O)[C@@H](NC(=O)CNC(=O)[C@H](CCC(=O)O)NC(=O)CNC(=O)[C@@H](N)Cc1c[nH]cn1)[C@@H](C)O)[C@@H](C)O)C(C)C)C(=O)N[C@@H](CCC(=O)O)C(=O)N[C@@H](Cc1ccccc1)C(=O)N[C@@H](CC(C)C)C(=O)N[C@@H](CCCCN)C(=O)N[C@@H](CC(N)=O)C(=O)NCC(=O)NCC(=O)NCCCC[C@H](NC(CCc1ccccc1)C(=O)O)C(=O)N1CCCC1C(=O)O (stereo partly drawn) [3633/42/1, [^14Leu,^25Phe]Exendin-4(1-28)-Gly-Gly-CONH-Lisinopril diacid]
IC50 (ACE from rabbit lung): 1500 nM

NCCc1ccc(S(=O)(=O)F)cc1 [AEBSF, 4-(2-aminoethyl)-bezenesulfonylfluoride, reference compound]
inhibition of plasma carboxypeptidase activity (in words) (plasma carboxypeptidase): inhibited

CC[C@H](C)[C@H](NC(=O)[C@H](CC(C)C)NC(=O)[C@H](Cc1c[nH]c2ccccc12)NC(=O)[C@H](CC(=O)O)NC(=O)[C@@H](NC(=O)[C@H](Cc1ccccc1)NC(=O)[C@H](CCC(=O)O)NC(=O)[C@H](CCCCN)NC(=O)[C@H](C)NC(=O)[C@H](C)NC(=O)[C@H](CCCCN)NC(=O)[C@H](CCC(=O)O)NC(=O)[C@H](CC(=O)O)NC(=O)[C@H](CC(C)C)NC(=O)[C@H](CCC(N)=O)NC(=O)[C@H](CCC(N)=O)NC(=O)[C@@H](NC(=O)[C@@H](NC(=O)[C@H](CC(=O)O)NC(=O)[C@H](CO)NC(=O)[C@@H](NC(=O)[C@H](Cc1ccccc1)NC(=O)[C@@H](NC(=O)CNC(=O)[C@H](CCC(=O)O)NC(=O)[C@H](C)NC(=O)[C@@H](N)Cc1c[nH]cn1)[C@@H](C)O)[C@@H](C)O)C(C)C)[C@@H](C)O)[C@@H](C)CC)C(=O)N[C@@H](CC(N)=O)C(=O)NCC(=O)NCC(=O)N1CCC[C@H]1C(=O)N[C@@H](CO)C(=O)N[C@@H](CCCCN)C(=O)N[C@@H](CCC(=O)O)C(=O)N[C@H](C(=O)N[C@H](C(=O)N[C@@H](CO)C(=O)NCCOCCOCCOCC(=O)NCCOCCOCC(=O)NCCCC[C@H](NC(CCc1ccccc1)C(=O)O)C(=O)N1CCC[C@H]1C(=O)O)[C@@H](C)CC)[C@@H](C)CC (some centres unmarked) [Compound 5713]
IC50 (ACE from rabbit lung; substrate N-benzyloxycarbonyl-Phe-His-Leu-OH 20 μM, read-out: ACE inhibition IC50): 700 nM

O=C(O)CN(CCN(CC(=O)O)CC(=O)O)CC(=O)O [EDTA, reference compound]
inhibition of plasma carboxypeptidase activity (in words) (plasma carboxypeptidase): not

NCCCC[C@H](N[C@@H](CCc1ccccc1)C(=O)O)C(=O)N1CCC[C@H]1C(=O)O [Lisinopril, reference compound]
IC50 (ACE from rabbit lung; commercial lisinopril, read-out: ACE inhibition IC50): 1.3 nM
IC50 (ACE from rabbit lung; synthesized lisinopril, read-out: ACE inhibition IC50): 2.8 nM

CNC(Cc1ccc(O)cc1)C(N)=O (centres unmarked) [N-methyl-Tyr-NH2]
inhibition of the formation of PYY(3-35) (in words) (plasma carboxypeptidase): did not inhibit

CC(C)C[C@H](NP(=O)(O)O[C@@H]1O[C@@H](C)[C@H](O)[C@@H](O)[C@H]1O)C(=O)N[C@@H](Cc1c[nH]c2ccccc12)C(=O)O [phosphoramidon, reference compound]
inhibition of plasma carboxypeptidase activity (in words) (plasma carboxypeptidase): not

GIP(1-30)-Ado-Ado-Lys-N-ε-(2-(S)-cyano pyrrolidyl)
OGTT (30 nM/kg) % maximal decrease (NIH/Swiss mice): −17%

GIP(1-30)-Ado-Lys-N-ε-(2-(S)-cyano pyrrolidyl) (YAEGTFISDYSIAMDKIHQQDFVNWLLAQK)
OGTT (30 nM/kg) % maximal decrease (NIH/Swiss mice): −18%

GIP(1-30)-exendin-4(31-39)-Ado-Ado-Lys-N-ε-(2-(S)-cyano pyrrolidyl)
OGTT (30 nM/kg) % maximal decrease (NIH/Swiss mice): −22%

GIP(1-30)-exendin-4(31-39)-Ado-Lys-N-ε-(2-(S)-cyano pyrrolidyl)
OGTT (30 nM/kg) % maximal decrease (NIH/Swiss mice): −18%

Lys^30 N-ε-(Ado-(γ-L-Glu-2-(S)-cyano pyrrolidyl)) GIP(1-30)-exendin-4(31-39)
OGTT (30 nM/kg) % maximal decrease (NIH/Swiss mice): −11%

[Lys^30 N-ε-(Ado-(γ-L-Glu-2-(S)-cyano pyrrolidyl))]GIP(1-30) (YAEGTFISDYSIAMDKIHQQDFVNWLLAQK([AEEA-γGlu-Pyrrolidine(2S-CN)]))
OGTT (30 nM/kg) % maximal decrease (NIH/Swiss mice): −10%

[^14Leu] GIP(1-30)-Ado-Lys-N-ε-(2-(S)-cyano pyrrolidyl) (YAEGTFISDYSIALDKIHQQDFVNWLLAQK)
OGTT (30 nM/kg) % maximal decrease (NIH/Swiss mice): −9%

[^16Lys (N-ε-(Aun-Aun-(γ-L-Glu-2-(S)-cyano pyrrolidyl)))] GIP(1-30)-exendin(31-39)
OGTT (30 nM/kg) % maximal decrease (NIH/Swiss mice): −3%

^36N-methyl-Tyr-amide-PYY(22-36) (ASLRHYLNLVTRQR[NMeY]-NH2; N-terminus assumed; SMILES CC(C)C[C@H](NC(=O)[C@H](CO)NC(=O)[C@H](C)N)C(=O)N[C@@H](CCCNC(=N)N)C(=O)N[C@@H](Cc1c[nH]cn1)C(=O)N[C@@H](Cc1ccc(O)cc1)C(=O)N[C@@H](CC(C)C)C(=O)N[C@@H](CC(N)=O)C(=O)N[C@@H](CC(C)C)C(=O)N[C@H](C(=O)N[C@H](C(=O)N[C@@H](CCCNC(=N)N)C(=O)N[C@@H](CCC(N)=O)C(=O)N[C@@H](CCCNC(=N)N)C(=O)N(C)[C@@H](Cc1ccc(O)cc1)C(N)=O)[C@@H](C)O)C(C)C) [N-terminal truncation of 36N-methyl-Tyr-amide-PYY(3-36)]
inhibition of the formation of PYY(3-35) (in words) (plasma carboxypeptidase): measurable but lower activity

— patent publication US8598314B2 (priority 2007, dated 2013)
